# Reference: US9623083B2, “Method to screen for an activator of adipose-resident NK cells” (Cornell University, priority 2011, dated 2017)
# Tests used:
# [1] = test system: adipose-resident NKT cells; test: In vivo effectiveness as activator of adipose-resident NKT cells
# [2] = one injection of αGalCer, Ohmura et al. (2010); cited from earlier work
# [3] = literature (Berzins 2011; Giaccone 2002); cited from earlier work
# [4] = test system: Arg1 protein, p-Y STAT6; test: Western blot of Arg1 and p-Y STAT6 in WAT and liver; assay type: in vivo, mice
# Protocol: Tissues or cells were lysed in Tris-based lysis buffer containing 1% Triton X-100. Normally, 15-30 μg of total lysates unless otherwise indicated were used in a mini SDS-PAGE as described (Sha et al. (2009) Cell Metab 9, 556-564). Antibodies specific for (p-Tyr641) STATE and (p-Tyr705) STAT3 (Cell signaling) and Arginase 1 (N-20, Santa Cruz sc-18351) were used at 1:500-2000 and for the loading control HSP90 (Santa Cruz) was used at 1:6000. The secondary antibody goat anti-rabbit IgG HRP (1:10,000) was from Bio-Rad. Quantitation of band density was carried out using the ImageLab software of the Bio-Rad ChemiDoc XRS+system following exposure.
# (§1) Accordingly, 6 w-old male mice were fed with either 13% LFD or 60% HFD for indicated period of time from 4 d to 24 w as described in Example 1. αGalCer (Toronto Research Chemicals) was dissolved in pyridine at 2.5 mg/ml and then diluted 1:250 in PBS to prepare 10 μg/ml working solution prior to use. In all experiments, mice were injected i.p. with 200 μl αGalCer (100 ng αGalCer per g body weight). The vehicle control group was injected with PBS with 0.4% pyridine. The dosage and frequency of αGalCer injection were the same for all the gain-of-function experiments unless otherwise indicated. HFD mice were injected with αGalCer or vehicle at day 0 and day 2. GTT was conducted on day 4, followed by sacrificing the mice on (day 5) to harvest adipose tissues (or other tissues as indicated), which were processed for immune cell analysis, frozen for Q-PCR or Western blot, or fixed for H&E staining Flow cytometric analyses of NKT levels and other immune cells were performed on day 5.
# [5] = test system: M2 genes in adipose tissue; test: Q-PCR analysis of M1 and M2 genes in white adipose tissue; assay type: in vivo, mice
# Protocol: RNA extraction from cells and murine tissues, and Q-PCR were carried out as previously described (36) using Trizol (Invitrogen) for liver, and Trizol plus QIAeasy kit (Qiagen) for adipose tissues with DNase digestion (Roche). Q-PCR data collected on the Roche LightCycler 480 were normalized to ribosomal 132 gene in the corresponding sample.
# as §1
# [6] = Glucose tolerance test (GTT) after αGalCer injection; assay type: in vivo, mice
# Protocol: as §1
# (§2) For GTT, mice were fasted for 16-18 h followed by injection of glucose (Sigma) at 1 g/kg body weight. Blood glucose was monitored using One-Touch Ultra Glucometer. Fasting insulin levels were measured following a 6 h fast.
# [7] = test system: cells surrounding adipocytes; test: H&E histology of adipose tissue; assay type: in vivo, mice; conditions: WT, 4 d HFD, FIG. 3D; abolished by CD1d deficiency
# Protocol: Adipose tissues were fixed in 4% formaldehyde, embedded in paraffin and sectioned by the Cornell Histology Core Facility. Pictures were taken using the Axiovert 200M microscope (Zeiss).
# as §1
# [8] = Body and epididymal fat weights; assay type: in vivo; conditions: HFD mice, FIG. 4B
# Protocol: as §1
# [9] = test system: NKT cells in adipose tissue; test: Flow cytometric analysis of immune cells in adipose tissue after αGalCer challenge; assay type: in vivo, mice
# Protocol: Single-cell suspensions of stromal vascular cells (SVC) from adipose tissue were prepared as described (Xia et al. (2011)). SVCs from two fat pads per mouse were diluted in 120-200 μl PBS, from which one tenth was used for the subsequent staining Following incubation with anti-CD16/CD32 antibody to block Fc receptors, 1×10^6 cells were incubated with 20 μl of antibodies diluted at optimal concentrations for 20 min at 4° C. Cells were washed three times with PBS and then resuspended in 200 μl PBS for analysis using the FACSCalibur Flow Cytometer (BD Biosciences). NKT cells were defined as CD45^+αGalCer-loaded CD1d-tetramer^+CD3/TCRβ^+ lymphocytes; CD8^+ T cells were defined as CD8^+CD45^+ cells; macrophages were as CD45^+F4/80^+CD11b^+ cells. During the run, samples were completely run out and the total number of CD45^+ lymphocytes or immune cells were gated and counted. The total cell number for various immune cells per g adipose tissue was calculated as (% cells in total CD45^+ lymphocytes or immune cells×total CD45^+ lymphocytes or immune cells)/g adipose tissue.
# For the Brdu staining, mice were injected (i.p.) with αGalCer (100 ng per g body weight) at day 0, and then with BrdU (Sigma, 0.6 mg/10 g body weight) at 36 h and 12 h prior to sacrifice at day 3. SVC of adipose tissues were purified, labeled with cell surface antibodies and then fixed in cold 70% ethanol at −20° C. overnight. The rest of steps were performed as the regular flow cytometric analysis using BrdU-FITC antibody and DNA dye 7-AAD (Anaspec).
# as §1
# [10] = Fasting insulin levels (ELISA); assay type: in vivo; conditions: 8 w HFD mice, FIG. 6D
# Protocol: Blood was collected in animals upon 6 h fasting during the day. Circulating insulin levels were measured using the kit from Millipore per supplier's protocols.
# as §2
# [11] = test system: gene expression in WAT; test: Microarray analysis of WAT; assay type: in vivo, mice; conditions: 4 d HFD
# Protocol: Microarray analyses of WAT were performed as described (39) with four groups of mice (n=3-4 per cohort) as follows: WT+veh, WT+αGalCer, CD1d^−/−+veh and CD1d^−/−+αGalCer. All mice were on 4 d HFD feeding with two αGalCer injections at day 0 and day 2. […] Data have been deposited into the GEO datasets (GSE36032). The array data of IL-4-treated mouse BMDM for 10 days were obtained from the Gene Expression Omnibus (GEO) database with accession number GSE25088 (Szanto A. et al. (2010)).
compound,measurement,setting,value
"CCCCCCCCCCCCCCCCCCCCCCCC(=O)NC(COC1O[C@H](CO)[C@H](O)[C@H](O)[C@H]1O)C(O)C(O)CCCCCC (stereo partly shown) [OCH, tetracosanoic acid 1-galactopyranosyloxy-3,4-dihydroxydec-2-yl amide]",effectiveness in vivo,[1],not effective in vivo
"CCCCCCCCCCCCCCCCCCCCCCCCCC(=O)N[C@@H](CO[C@H]1O[C@H](CO)[C@H](O)[C@H](O)[C@H]1O)[C@H](O)[C@H](O)CCCCCCCCCCCCCC [αGalCer, (2S,3S,4R)-1-O-(alpha-D-galactosyl)-N-hexacosanoyl-2-amino-1,3,4-octadecanetriol]",effect on glucose tolerance in HFD animals,[2],mild effect
same,tolerability in humans,[3],well tolerated
same,toxicity,[3],not toxic
same,Arg1 protein in CD1d-/- WAT,"[4]; CD1d-/- mice, FIG. 7C-D",abolished
same,tyrosine phosphorylation (p-Y) of STAT6 in WAT following αGalCer with loss of IL-4,"[4]; IL-4-/- mice, 4 d HFD, FIG. 11E-F",completely abolished
same,Arg1 protein in WT WAT,"[4]; WT mice, HFD, FIG. 7C-D",significantly induced
same,hepatic STAT6 activation,"[4]; liver of WT mice, 4 d HFD, FIG. 11G",not activated
same,Arg1 protein induction in the liver,"[4]; liver, 4 d or 8 w HFD, FIG. 8B",not observed in the liver
same,Il4 mRNA levels in WAT,"[5]; 4 d HFD, NKT-dependent, FIG. 9F",highly induced
same,αGalCer-mediated induction of M2 genes in WAT of myeloid cell-specific PPARγ or PPARβ/δ-deficient animals,"[5]; 4 day HFD, vs WT control littermates, FIG. 12C",not affected
same,"αGalCer-mediated induction of M2 genes Arg1, Chi3l3, Pdcd1Ig2 and Arg1 protein in WAT with loss of IL-4","[5]; IL-4-/- mice, 4 d HFD, FIG. 11D-F",markedly attenuated
same,"induction of a subset of M2 genes (Arg1, Chi313, Pdcd1Ig2) in adipose tissue","[5]; all three HFD models, NKT-dependent, FIGS. 7A-B and 8A",50-100 fold
same,effect on glucose tolerance in CD1d-/- mice,"[6]; CD1d-/- mice, 4 d HFD, FIG. 6E",no effect
same,αGalCer effect in glucose tolerance in IL-4-/- mice,"[6]; IL-4-/- mice, 4 d HFD, FIG. 11B-C",completely abolished
same,systemic glucose tolerance,"[6]; WT mice at all stages of HFD (4 d, 8 w, 24 w), FIGS. 6A-C",improved systemic glucose tolerance
same,effect on glucose tolerance in mice on LFD,"[6]; WT mice on LFD, FIG. 6F",no effect on glucose tolerance
same,number of cells surrounding adipocytes in WAT sections,[7],significant increase
same,effect on body and epididymal fat weights,[8],no discernible effect
same,macrophages and CD8+ T cells in adipose tissue,"[9]; 4 d HFD mice, FIG. 5A",milder increases
same,increase in percentage of NKT cells in adipose tissue,"[9]; 4 d HFD mice, αGalCer 100 ng per g body weight i.p. day 0 and day 2, FIG. 3C",> 4 fold
same,increase in total cell number of NKT cells in adipose tissue,"[9]; 4 d HFD mice, αGalCer i.p. day 0 and day 2, FIG. 5A",70 fold
same,reduction of total lymphocytes in WAT of IL-4-/- mice relative to WT cohorts after αGalCer,"[9]; 4 d HFD, FIG. 12B",approximately 40%
same,effect on fasting insulin levels,[10],no effect
same,number of genes whose expression was significantly increased by more than 2-fold in WAT,"[11]; WT vs CD1d-/-, NKT-dependent, FIG. 9A","1,556 genes"
same,"Arg1 expression, αGalCer vs. veh in WT WAT","[11]; microarray, FIG. 9B",32 fold
same,"Chi313 expression, αGalCer vs. veh in WT WAT","[11]; microarray, FIG. 9B",138 fold
same,"pdcd1Ig2 expression, αGalCer vs. veh in WT WAT","[11]; microarray, FIG. 9B",53 fold
